In patent publication US11364280B2, “Method for blocking stress-induced tumor progression” (Taipei Veterans General Hospital, priority 2018, dated 2022):
No end group written: not given here.

Key:
[1] = system: MSI1 translocation into the cytosol in 05 MG cells; assay: MSI1 subcellular translocation (immunostaining, fractionation immunoblot); type: cell-based, human; details: LMB 10 ng/mL, 2 h pre-treatment; hypoxic and cisplatin treatment
Description: Magnifying power: 200× (top) and 600× (bottom). Quantitation of cells expressing cytoplasmic or nuclear MSI1 is shown in the bar graph on the right. FIG. 1B 05 MG cells pre-treated with or without nuclear export inhibitor leptomycinB (LMB) (10 ng/mL, 2 h) under normoxia or hypoxia conditions for 24 hr were subjected to anti-MSI1 (green) immunostaining and DAPI (blue) nuclear counterstaining. Images were acquired from Carl Zeiss confocal microscope system. The intensity of green fluorescence in nuclear and cytosol was quantified and shown as relative percentage in the graph at the right. […] FIG. 1D provides a schematic showing the mutation sites in the NLS (orange) and NES (red) of human MSI1. All constructs were sub-cloned into p-3×Flag-Myc-CMV expression vector. […] Images were acquired from Carl Zeiss confocal microscope system, and the quantification of fluorescent intensity in the nuclear and cytosolic compartments was shown as relative percentage in the graph at the left. […] Tumor size was measure with a caliper at the indicated time points. […] The tumor size was measured with a caliper at the indicated time points. […]
The ratio of MSI1 expression in each group was presented in the graph. […] Hypoxia-induced apoptosis was withdrawn by the over-expression of wild-type MSI1 but not in mutant MSI1 groups determined by annexin V staining, MTT assay, and colony forming assay. […]

[2] = biological target: T1, His-tagged AGO2 recombinant protein (Homo sapiens, UniProt Q9UKV8); assay: PepSpot high-throughput peptide tiling array; type: binding; details: 27 peptides of MSI1 C-terminus
T1 construct: made in house; host or cells: High Five insect cells (baculovirus, Bac-To-Bac; virus made in Sf9)
T1 sequence (Q9UKV8 whole entry): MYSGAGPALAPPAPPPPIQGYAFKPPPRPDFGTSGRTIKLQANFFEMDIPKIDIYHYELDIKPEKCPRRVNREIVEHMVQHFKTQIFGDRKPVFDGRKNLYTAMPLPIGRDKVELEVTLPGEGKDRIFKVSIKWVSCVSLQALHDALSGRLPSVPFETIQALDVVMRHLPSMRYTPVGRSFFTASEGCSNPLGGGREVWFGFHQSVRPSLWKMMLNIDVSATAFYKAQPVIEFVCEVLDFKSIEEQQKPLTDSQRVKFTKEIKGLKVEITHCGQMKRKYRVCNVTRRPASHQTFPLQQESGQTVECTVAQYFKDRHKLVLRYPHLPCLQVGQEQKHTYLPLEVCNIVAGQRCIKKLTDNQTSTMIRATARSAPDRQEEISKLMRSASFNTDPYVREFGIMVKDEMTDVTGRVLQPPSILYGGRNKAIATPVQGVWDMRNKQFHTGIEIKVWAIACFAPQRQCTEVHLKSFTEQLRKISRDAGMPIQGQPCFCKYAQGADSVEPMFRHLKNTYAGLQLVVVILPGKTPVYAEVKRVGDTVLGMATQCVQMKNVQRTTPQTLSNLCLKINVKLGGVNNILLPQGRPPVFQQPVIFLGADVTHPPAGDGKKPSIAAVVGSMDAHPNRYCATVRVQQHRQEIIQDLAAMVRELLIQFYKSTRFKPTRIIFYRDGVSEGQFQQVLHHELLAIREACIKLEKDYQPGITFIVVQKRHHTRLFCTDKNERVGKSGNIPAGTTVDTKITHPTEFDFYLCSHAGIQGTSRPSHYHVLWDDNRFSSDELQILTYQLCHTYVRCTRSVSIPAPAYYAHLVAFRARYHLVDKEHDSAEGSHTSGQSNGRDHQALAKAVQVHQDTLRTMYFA
Description: (§1) The relative orientation of peptide-binding site and AGO2 pocket was depicted. […] The recombinant AGO2 protein was immobilized on CM5 chip and incubated with a serial dilution (from 625 to 10000 nM) of the two peptides, respectively. The association and dissociation between TAT-11, TAT-26 and immobilized AGO2 were tested by SPR (top). The association rate constant (Ka), dissociation rate constant (Kd), and equilibrium dissociation constant (KD) were calculated and presented in the chart (bottom).
To rapidly screen the putative binding hotspots along the C-terminus of MSI1, we mimicked the epitope screening method by dotting the synthetic short peptides on nitrocellulose membrane and incubated with purified AGO2 protein^39. The C-terminus of MSI1 (201-262) was divided into 27 individual synthetic peptides with N-terminal amine attached on the nitrocellulose. Each peptide is 15 amino acids in length and has […] overlapping with the previous neighboring peptide (Suppl. Table IV). The purchased PepSpot membrane (JPT peptide technologies, Berlin, Germany) was firstly rinsed by methanol for 5 minutes, followed by Tris buffer saline supplemented with 0.1% Tween-20 (TBS-T) washing thrice. […]

[3] = biological target: T1, His-tagged AGO2 recombinant protein; assay: Affinity measurement by surface plasmon resonance (SPR); type: binding; details: AGO2 immobilized on CM5 chip; peptide serial dilution 625 to 10000 nM; Langmuir 1:1 model; read-out: equilibrium dissociation constant (KD)
Description: as §1
A Biacore T200 (GE Healthcare) was used to study the binding affinity of the TAT-11 and TAT-26 peptides with recombinant His-tagged AGO2 protein. The recombinant His-AGO2 and TAT peptides were diluted in HBS-P buffer ([…], 150 mM NaCl and 0.005% P20, pH 7.4). To evaluate the binding affinity, recombinant His-AGO2 was immobilized on a CM5 sensor chip (GE Healthcare, BR100012) via amine coupling (˜7000 RU) for 3600 sec at rate of 5 μl/mins, followed by dissociation for 600 s. After injection of each peptide, the surface was regenerated with an injection of 10 mM NaOH. All sensorgrams were double referenced by subtracting the surface effect from the control flow […] and the buffer effect form the blank buffer. The kinetic values Ka, Kd and KD were obtained using Biacore […] Evaluation Software (GE healthcare) assuming the Langmuir 1:1 binding model.

[4] = system: MSI1/AGO2 downstream mRNA; assay: qRT-PCR of downstream mRNA targets of MSI1-AGO2, hypoxia versus normoxia; type: cell-based, human; details: six targets
Description: FIG. 4A provides a schematic illustrating the full-length and C-terminal (C-term) fragment of human MSI1. The construct of MSI1 C-term was sub-cloned into p-3×Flag-Myc-CMV expression vector. […] Quantification of the fold changes of binding signals was performed by normalizing IP signals to IgG-precipitated controls. The peaks indicated MSI1 or AGO2 palindromic-binding sequence. […] Purified total RNA was subjected to RT-PCR using primers specific for NF2, TP53, CDKN1A, CCND1, CDK4, and HELLS. The mRNA levels under hypoxia were normalized with that under normoxia and presented as relative fold changes in the chart. […] The relative fold change of the number of viable cells in each day was presented in the graph. […] Xenograft tumor size was monitored from day 2 after injection of Flag-control or Flag-C-term. […] Tumor size was then monitored for 22 days. The expression of MIS1-C-term in the xenograft tumor tissue was assessed by Western blot. […] […]
Oligonucleotide specificity was computer tested (BLAST, National Center for Biotechnology Information. Bethesda. Md., USA) by homology search with the human genome and later confirmed by melting curve analysis. […] Signals were detected using 7900HT Fast Real-time PCR system (Applied Biosystems, Foster City, Calif., USA). […]

in vitro = details: human
Description: (§2) After 0.5, 1, 2, 4 and 6 hours, cell lysates were collected and the fluorescent intensity was detected by ELISA reader. N=3 at each time point. […] Cells were washed and observed under microscopy at the indicated time points. […] To facilitate comparison of intake and degradation dynamics, mean fluorescence values were normalized to stating fluorescence. All data represent three independent experiments.

MSI1/AGO2 interaction [5] = biological target: T2, MSI1/AGO2 interaction (Homo sapiens, UniProt Q9UKV8); assay: Co-immunoprecipitation of endogenous MSI1 and AGO2 under hypoxia; type: cell-based; design: endogenous in cells; details: 10 μM peptide, hypoxic condition
T2 sequence (Q9UKV8 whole entry): as above

MSI1/AGO2 interaction [6] = biological target: T2, MSI1/AGO2 interaction; assay: Split Gaussia luciferase reconstitution reporter assay; type: cell-based; design: expressed in transfected cells; lysates used for the in vitro read-out; details: 10 μM peptide; in vitro and in vivo
Description: as §1
FIG. 14A provides schematic presentation of the constructs of full-length, C-terminus, and N-terminus of MSI1 as well as wild-type AGO2 for purifying recombinant proteins. FIG. 14B provides pull-down assay with recombinant MSI1 and AGO2 proteins showing that the C-terminus of MSI1 is essential for the direct MSI1/AGO2 interaction. […] FIG. 14D provides the schematic illustration of the split luciferase reconstitution imaging system to real-time monitor the interaction between MSI1 and AGO2.
To use Gaussia luciferase (Gluc) for detecting protein-protein interaction, we split Gaussia luciferase into NGluc (N-terminal Gluc, 106 a.a.) and CGluc (C-terminal Glue. 79 a.a.)^53,54. The two fragments were amplified by polymerase chain reaction (PCR) and subjected to construct fusion protein with MSI1 and AGO2 by the pcDNA 3.1 and pCMV backbone, respectively. Each fusion protein contains a flexible linker (GGGGS)2 between the protein and polypeptides of split luciferase^55,56. Stable cell lines were obtained by stable transfection of both fusion protein expressive plasmids in 05 MG GBM cell line with Hygromycin B (Sigma Aldrich Co., St. Louis, […]., USA) and G418 sulfate (Merck Co., Berlin, Germany). […] The bioluminescent signals were acquired by Wallac 1420 Victor^2 Microplate Reader (Perkin Elmer, Waltham. Mass., USA) equipped with auto-dispenser to avoid rapid decay of GLuc. […] The region of interests (ROI) was automatically chosen by the Living Image 4.2 software and quantified as photon flux in a certain area per second (photons/s/cm^2).

05 MG cells = assay: Cellular uptake of fluorescein labeled peptides, fluorescence read by ELISA reader; details: for time to significant cellular uptake: 05 MG cells; for EC50: read-out: half-uptake concentration (EC50), fluorescein labeled peptides, 05 MG cell line
Description: The biological activity of peptides was tested in 05 MG cell line. The cells were treated with different concentration of fluorescein labeled peptides and was measured using ELISA reader.
as §2

binding of recombinant AGO2 to arrayed peptide [2]	Molecule	MSI1 translocation into the cytosol [1]	Kd [3] [µM]	effect of MSI1/AGO2 binding on downstream mRNA [4]	half-life (in vitro) [h]	effect on MSI1/AGO2 interaction (co-IP immunoblot) (MSI1/AGO2 interaction [5])	effect on bioluminescent signal of split Gaussia luciferase (MSI1/AGO2 interaction [6])	time to significant cellular uptake (05 MG cells)	EC50 (05 MG cells) [µM]
	CCC(=C/[C@H](C)C/C=C/C(C)=C/[C@@H](C)C(=O)[C@@H](C)[C@H](O)[C@@H](C)C/C(C)=C/C(=O)O)/C=C/[C@@H]1OC(=O)C=C[C@@H]1C [Leptomycin B]	strongly reduced MSI1 translocation into the cytosol							
preferentially bound	HSLGGPLIATAFTNG [compound 26]								
	HSLGGPLIATAFTNGGRKKRRQRRRPPQ [TAT-26]		4.63	reversed	≤ 4	effectively abrogated the MSI1/AGO2 interaction	dramatically turned down the bioluminescent signal in vitro and in vivo	within one hour	9.02
preferentially bound	YQFPEFRVERTPLPS [compound 11]								
	YQFPEFRVERTPLPSGRKKRRQRRRPPQ [TAT-11]		3.33	reversed	≤ 4	effectively abrogated the MSI1/AGO2 interaction	dramatically turned down the bioluminescent signal in vitro and in vivo	within one hour	9.1
